Results: patent US20190369122A1, “METABOLIC DISORDERS” (priority 2016, published 2019)

Key:
p38γ/p38δ = conditions: cited from earlier work
p38α/p38β = conditions: cited from earlier work
HEK293 cells = experiment: Signaling in HEK293 cells (immunoblot); format: cell-based, human; conditions: for inhibition of imidazole propionate-induced phosphorylation of p62 and S6K1: 10 μM, 30 min pretreatment, ImP 100 μM 1 h
Experimental: (§1) Snap-frozen liver and harvested cells were lysed in buffer containing 50 mM Tris-HCl (pH 7.4), 150 mM NaCl, 1 mM EDTA, 1 mM Na3VO4, 20 mM NaF, 10 mM glycerophosphate, 1 mM PMSF, 10% glycerol, 1% Triton X-100 and protease inhibitor cocktail. For immunoprecipitation, the cell lysates were obtained in 0.3% CHAPS-containing lysis buffer, sonicated and centrifuged at 20,000 g for 15 min at 4° C., and the supernatant was incubated with 20 μl of anti-FLAG beads (Sigma) at 4° C. for 4 h under gentle agitation.
HEK293 cells (ATCC CRL-1573) were grown and maintained in high-glucose (4.5 g/l glucose) DMEM with 10% (v/v) FBS. […] 24 h after transfection (with plasmids or siRNA as indicated), HEK293 cells cultured in poly-L-lysine-coated 60 mm dishes were rinsed twice with DMEM without FBS and incubated in serum-free DMEM for 18 h. HEK293 cells were then washed once with EBSS and incubated in EBSS for 1 h.

primary hepatocytes = experiment: Insulin signaling in primary hepatocytes (immunoblot); format: cell-based, mouse; conditions: rapamycin 20 nM, Torin 1 50 nM, ImP 100 μM
Experimental: as §1
Primary hepatocytes were isolated from C57BL/6J mice by digesting liver with perfusion of collagenase type IV as described previously. After perfusion, 16×10^5 cells were plated on collagen-coated 60 mm dishes in Dulbecco's modified Eagle's medium (DMEM)/F12 supplemented with fetal bovine serum (FBS), penicillin/streptomycin and 100 nM dexamethasone. After 4 h, the medium was changed to DMEM/F12 containing penicillin/streptomycin.

[1] = target: recombinant p62 (Abcam, ab95320), Q13501

## Cc1ccc(-n2nc(C(C)(C)C)cc2NC(=O)Nc2ccc(OCCN3CCOCC3)c3ccccc23)cc1 [BIRB796, 1-(5-tert-butyl-2-p-tolyl-2H-pyrazol-3-yl)-3-[4-(2-morpholin-4-yl-ethoxy)naphthalen-1-yl]urea]
p38γ/p38δ
  inhibition of p38γ/p38δ: inhibits the entire p38 subfamily
p38α/p38β
  inhibition of p38α/p38β: inhibits the entire p38 subfamily
HEK293 cells; amino acid-deprived HEK293
  inhibition of imidazole propionate-induced phosphorylation of p62 and S6K1: inhibited

## CC(C)C[C@H](N)C(=O)O [Leucine, reference compound]
HEK293 cells; HEK293, after only 15 min, transient
  S6K1 phosphorylation: increased
HEK293 cells; absence of amino acids
  time to mTORC1 activation: ≤ 15 min

## NC1(c2ccc(-c3nc4ccn5c(=O)[nH]nc5c4cc3-c3ccccc3)cc2)CCC1 [MK2206, reference compound]
HEK293 cells
  effect on imidazole propionate-induced Akt activation: efficiently blocked
HEK293 cells; absence of amino acids
  effect on imidazole propionate-induced S6K1 phosphorylation: did not affect
HEK293 cells; presence of amino acids
  effect on imidazole propionate-induced S6K1 phosphorylation: inhibition

## Oc1ccc(-c2nc(-c3ccncc3)c(-c3ccc(F)cc3)[nH]2)cc1 [SB202190]
p38α/p38β
  inhibition of p38α/p38β: inhibited
HEK293 cells; amino acid-deprived HEK293
  inhibition of imidazole propionate-induced phosphorylation of p62 and S6K1: not

## N[C@@H](Cc1c[nH]cn1)C(=O)O [histidine, reference compound]
HEK293 cells; amino acid-deprived HEK293, 100 μM for 1 h
  phosphorylation of p62 or S6K1: neither

## CCC(=O)N1CCN(c2ccc(-n3c(=O)ccc4cnc5ccc(-c6cnc7ccccc7c6)cc5c43)cc2C(F)(F)F)CC1 [torin 1, 1-[4-[4-(1-oxopropyl)-1-piperazinyl]-3-(trifluoromethyl)phenyl]-9-(3-quinolinyl)-benzo[h]-1,6-naphthyridin-2(1H)-one, reference compound]
Primary hepatocytes
  effect on imidazole propionate-induced S6K1 phosphorylation: reversed
  inhibition of imidazole propionate-induced reduction of IRS: inhibited

## insulin: insulin from Sigma-Aldrich, used at 5 nM
HEK293 cells; HEK293, insulin 5 nM, absence of amino acids or imidazole propionate
  mTORC1 activation, as measured by S6K1 phosphorylation: did not lead to mTORC1 activation

B1: recombinant p38γ (Abcam, ab125651) (protein)
chain: MSSPPPARSGFYRQEVTKTAWEVRAVYRDLQPVGSGAYGAVCSAVDGRTGAKVAIKKLYRPFQSELFAKRAYRELRLLKHMRHENVIGLLDVFTPDETLDDFTDFYLVMPFMGTDLGKLMKHEKLGEDRIQFLVYQMLKGLRYIHAAGIIHRDLKPGNLAVNEDCELKILDFGLARQADSEMTGYVVTRWYRAPEVILNWMRYTQTVDIWSVGCIMAEMITGKTLFKGSDHLDQLKEIMKVTGTPPAEFVQRLQSDEAKNYMKGLPELEKKDFASILTNASPLAVNLLEKMLVLDAEQRVTAGEALAHPYFESLHDTEDEPQVQKYDDSFDDVDRTLDEWKRVTYKEVLSFKPPRQLGARVSKETPL
[1]
  p62 phosphorylation (T269 and S272), in vitro kinase assay: p62 phosphorylation, at T269 and S272, was induced by p38γ in the presence of 50 µM ATP, which was further increased with 200 µM ATP
